Test results reported in patent publication US20030087844A1, “Ribavirin syrup formulations” (SCHERING CORPORATION, priority 2001, published 2003).

Experiment: Storage stability testing of the syrup at ICH conditions, HPLC assay of ribavirin and degradation products
Assay type: physicochemical
Description: The stability of a syrup formulation of the present invention was compared to conventional liquid formulations that contain ribavirin that are marketed by ICN. Degradation of syrup formulations containing ribavirin is observed during storage stability testing, as is evidenced by declining concentrations of the active ingredient and a concomitant formation of degradates. The most frequent degradation product that has been identified is the carboxylic acid product of ribavirin. Based upon these tests, it is believed that the syrup formulations of the present invention have a shelf life of greater than two years.
This analysis was performed via HPLC methods that are known to one of skill in the art. Stability data was also performed on the formulation of the present invention at 18 months after formulation, and measured by HPLC techniques as known by one of skill in the art as set forth in Table 2 below.
Only results that exceed the limit of quantitation (LOQ) were included in the attached tables. The LOQ of each degradation product is 0.05%. Synthesis-related impurities of ribavirin, the α-anomer and 5′-acetylribavirin, were not degradation products and are not monitored in the drug product. Each degradation product result was rounded to one significant figure according to the rounding convention described in the USP. The results for total degradation products that were derived from the sum of individual degradation products that contain one more significant figure than those shown in the data tables and then rounded to one decimal place.

- ribavirin degradation after storage (25° C./60% RH, up to 12 months): did not degrade significantly
- ribavirin degradation after storage (30° C./60% RH, up to 12 months): did not degrade significantly
- ribavirin degradation after storage (ICH accelerated condition 40° C./75% RH, up to 6 months): did not degrade significantly
SMILES: NC(=O)c1ncn([C@@H]2O[C@H](CO)[C@@H](O)[C@H]2O)n1 [Ribavirin, 1β-D ribofuranosyl-1H-1,2,4 triazole 3-carboxamide]
